The values that follow come from US5399557A, “Pyrroloazepine compound” (Suntory Limited, priority 1991, dated 1995).

For test [1], the system named is α1 receptor. The test is described as follows: Anti-α1 action: norepinephrine (NE)-induced tonic contraction of isolated thoracic aorta (helical strip). Particulars: contraction induced by 10^-5 M norepinephrine taken as 100%, guinea pig thoracic aorta, 37° C, compounds marked * tested as hydrochloride; for Anti α1 action (% of Control), 10^-7 M: test drug 10^-7 M, 0.1 µM; for Anti α1 action (% of Control), 10^-8 M: test drug 10^-8 M, 0.01 µM. Also noted: species or system Hartley male guinea pig. The procedure:
The thoracic aorta of each Hartley male guinea pig (body weight: 300-500 g) was excised. A sample cut in a helical form was suspended under 1 g load in a Magnus cylinder filled with the Tyrode solution of 37° C. which had been saturated with a mixed gas consisting of 95% O2 +5% CO2. Using an isometric transducer ("TB-612J"/NIHON KOHDEN) and a pressure preamplifier ("AP-620G"/NIHON KOHDEN), variations in tension were measured. The measurement results were recorded on a thermal pen-writing recorder ("WT-647G"/NIHON KOHDEN).
Taking the tonic contraction induced by 10^- 5M norepinephrine (NE) as 100%, the percent contractions upon addition of each test drug at 10^-8 and 10^-7 M were determined as anti-α1 action.

Test [2] has as its target T1, serotonin (5-HT) receptor (Cavia porcellus, UniProt A0A286Y537).
T1 construct: 5-HT-induced contraction
The test is described as follows: Anti-serotonin action (anti-5-HT action): 5-HT-induced contraction of isolated superior mesenteric artery (helical strip). Also on record: species or system Hartley male guinea pig. Particulars: contraction induced by 10^-5 M serotonin taken as 100%, guinea pig superior mesenteric artery, 37° C, compounds marked * tested as hydrochloride; for remaining activity at 1 µM: test drug 10^-6 M, read-out: Anti 5-HT action (% of Control), 10^-6 M; for remaining activity at 0.1 µM: test drug 10^-7 M, read-out: Anti 5-HT action (% of Control), 10^-7 M. Here is the method: (2) Anti-serotonin action (anti-5-HT action)
A sample cut in a helical form was suspended under 0.3 g load in a Magnus cylinder filled with the Tyrode solution of 37° C. which had been saturated with a mixed gas consisting of 95% O2 +5% CO2. Using an isometric transducer ("UL-10"/SHINKOH K.K.) and a pressure preamplifier ("DSA-605A"/SHINKOH K.K.), variations in tension were measured. The measurement results were recorded on a pen-writing recorder ("VP-6537A"/NATIONAL K.K.). Taking the contraction induced by 10^-5 M serotonin (5-HT) as 100%, the percent contractions induced by 10^-5 M 5-HT in the presence of each test drug at 10^-7 and 10^-6 M were determined as anti-5-HT action.

Test [3] concerns platelet aggregation. The experiment in a line: Anti-platelet-aggregating action: platelet aggregation induced by ADP + 5-HT in platelet rich plasma. Conditions: Oryctolagus cuniculus, test drug 10^-7 M, aggregation induced by 10^-6 M ADP + 10^-5 M 5-HT, 1 mM CaCl2 CaCl2, rabbit PRP, compound marked * (45) tested as hydrochloride, read-out: Inhibitory rate of platelet aggregation (%). The class given is cell-based, Japanese white house rabbit. The procedure: (3) Anti-platelet-aggregating action
Blood was drawn from the auricular artery of Japanese white house rabbit (male, about 3 kg), whereby a platelet rich plasma sample (PRP) was prepared. Platelet aggregating ability was measured using a platelet aggregation measuring apparatus ("PAM-SC"/MEBANIX).
Found under the presence of 1 mM of CaCl2 was a controlling action of the test drug (10^-7 M) against the maximum reaction (100%) of the platelet aggregation induced by 10^-6 M of ADP+10^-5 M of 5-HT.

Structures can show the parent of a compound that is named as a salt.

T1 sequence (A0A286Y537 1-470): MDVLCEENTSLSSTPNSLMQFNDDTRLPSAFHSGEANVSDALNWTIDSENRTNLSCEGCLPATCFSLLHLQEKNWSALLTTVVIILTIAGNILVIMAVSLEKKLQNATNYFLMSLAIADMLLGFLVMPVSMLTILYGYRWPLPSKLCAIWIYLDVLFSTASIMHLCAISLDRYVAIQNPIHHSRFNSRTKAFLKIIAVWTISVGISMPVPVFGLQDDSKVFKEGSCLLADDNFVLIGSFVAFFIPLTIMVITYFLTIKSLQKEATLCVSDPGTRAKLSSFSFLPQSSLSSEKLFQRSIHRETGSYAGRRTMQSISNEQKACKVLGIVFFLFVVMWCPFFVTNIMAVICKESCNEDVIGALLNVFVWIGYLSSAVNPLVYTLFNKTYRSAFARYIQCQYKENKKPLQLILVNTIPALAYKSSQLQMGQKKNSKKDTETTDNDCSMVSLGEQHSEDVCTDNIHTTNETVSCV

As for `Cn1ccc2c1C(=O)N(CCCN1CCC(C(=O)c3ccc(F)cc3)CC1)CCC2=NO` [Compound No. 43], in test [1], the “Anti α1 action (% of Control), 10^-7 M” value was 37.9 % of Control and the “Anti α1 action (% of Control), 10^-8 M” value is given as 73.3 % of Control. Moreover, in test [2], the remaining activity at 1 µM came to 8.7% and the remaining activity at 0.1 µM was 43.1%. Moreover, in test [3], the inhibition at 0.1 µM was determined as 18%.

With `Cn1ccc2c1C(=O)N(CCCN1CCN(c3ccccc3)CC1)CCC2O` (centres unmarked) [Compound No. 39, 4-hydroxy-1-methyl-7-[3-(4-phenylpiperazin-1-yl)propyl]-4,5,6,7-tetrahydropyrrolo[2,3-c]azepin-8(1H)-one], in test [1], the “Anti α1 action (% of Control), 10^-7 M” value was 80.5 % of Control and the “Anti α1 action (% of Control), 10^-8 M” value is 99.3 % of Control. Besides, in test [2], the remaining activity at 1 µM was found to be 8.7% and the remaining activity at 0.1 µM is 34.3%. Moreover, in test [3], the inhibition at 0.1 µM was found to be 33%.

With `CON=C1CCN(CCCN2CCN(c3ccccc3)CC2)C(=O)c2c1ccn2C` [Compound No. 46, 4-Methoxyimino-1-methyl-7-[3-(4-phenylpiperazin-1-yl)propyl]-4,5,6,7-tetrahydropyrrolo[2,3-c]azepin-8(1H)-one], in test [1], the “Anti α1 action (% of Control), 10^-7 M” value is on record as 28.0 % of Control and the “Anti α1 action (% of Control), 10^-8 M” value is given as 78.7 % of Control. In addition, in test [2], the remaining activity at 1 µM stood at 12.8% and the remaining activity at 0.1 µM amounted to 59.5%.

As for `Cn1ccc2c1C(=O)N(CCCN1CCN(c3ccccc3)CC1)CCC2=O` [Compound No. 18, 1-Methyl-7-[3-(4-phenylpiperazin-1-yl)propyl]-6,7-dihydropyrrolo[2,3-c]azepine-4,8(1H,5H)-dione], in test [1], the “Anti α1 action (% of Control), 10^-7 M” value is given as 85.5 % of Control and the “Anti α1 action (% of Control), 10^-8 M” value is reported as 100.0 % of Control. Also, in test [2], the remaining activity at 1 µM worked out at 16.3% and the remaining activity at 0.1 µM amounted to 52.8%.

`CCn1ccc2c1C(=O)N(CCCN1CCN(c3ccccc3)CC1)CCC2=O` [Compound No. 19, 1-Ethyl-7-[3-(4-phenylpiperazin-1-yl)propyl]-6,7-dihydropyrrolo[2,3-c]azepine-4,8(1H,5H)-dione]: in test [1], the “Anti α1 action (% of Control), 10^-7 M” value is 90.1 % of Control and the “Anti α1 action (% of Control), 10^-8 M” value is 100.0 % of Control. Also, in test [2], the remaining activity at 1 µM was 12.4% and the remaining activity at 0.1 µM was found to be 60.3%.

Turning to `Cn1ccc2c1C(=O)N(CCCN1CCN(c3ccccc3)CC1)CCC2=NO` [Compound No. 45, 4-hydroxyimino-1-methyl-7-[3-(4-phenylpiperazin-1-yl)propyl]-4,5,6,7-tetrahydropyrrolo[2,3-c]azepin-8(1H)-one], in test [1], the “Anti α1 action (% of Control), 10^-7 M” value was 23.8 % of Control and the “Anti α1 action (% of Control), 10^-8 M” value is 79.8 % of Control. Moreover, in test [2], the remaining activity at 0.1 µM is 11.2%. Moreover, in test [3], the inhibition at 0.1 µM stood at 30%.

As for `O=C1c2c(ccn2Cc2ccccc2)C(=NO)CCN1CCCN1CCN(c2ccccc2)CC1` [Compound No. 48, 1-Benzyl-4-hydroxyimino-7-[3-(4-phenylpiperazin-1-yl)propyl]-4,5,6,7-tetrahydropyrrolo[2,3-c]azepin-8(1H)-one], in test [1], the “Anti α1 action (% of Control), 10^-7 M” value is listed as 60.5 % of Control and the “Anti α1 action (% of Control), 10^-8 M” value is recorded as 98.9 % of Control. In test [2], the remaining activity at 1 µM was 5.1% and the remaining activity at 0.1 µM came to 52.8%.

As to `CCn1ccc2c1C(=O)N(CCCN1CCN(c3ccccc3)CC1)CCC2=NO` [Compound No. 47, 1-Ethyl-4-hydroxyimino-7-[3-(4-phenylpiperazin-1-yl)propyl]-4,5,6,7-tetrahydropyrrolo[2,3-c]azepin-8(1H)-one], in test [1], the “Anti α1 action (% of Control), 10^-7 M” value is 81.9 % of Control and the “Anti α1 action (% of Control), 10^-8 M” value is recorded as 100.0 % of Control. Also, the remaining activity at 0.1 µM in test [2] is 5.2%. Further, the inhibition at 0.1 µM in test [3] was 34%.

Regarding `COc1cccc(N2CCN(CCCN3CCC(=NO)c4ccn(C)c4C3=O)CC2)c1` [Compound No. 50, 4-Hydroxyimino-7-[3-[4-(3-methoxyphenyl)piperazin-1-yl]propyl]-1-methyl-4,5,6,7-tetrahydropyrrolo[2,3-c]azepin-8(1H)-one], in test [1], the “Anti α1 action (% of Control), 10^-7 M” value is reported as 38.8 % of Control and the “Anti α1 action (% of Control), 10^-8 M” value was 57.6 % of Control. In test [2], the remaining activity at 1 µM was found to be 18.4% and the remaining activity at 0.1 µM turned out to be 60%.

For `Cn1ccc2c1C(=O)N(CCCN1CCN(c3ccc(F)cc3)CC1)CCC2O` (centres unmarked) [Compound No. 40, 7-[3-[4-(4-Fluorophenyl)piperazin-1-yl]propyl]-4-hydroxy-1-methyl-4,5,6,7-tetrahydropyrrolo[2,3-c]azepin-8(1H)-one], in test [1], the “Anti α1 action (% of Control), 10^-7 M” value is listed as 94.5 % of Control and the “Anti α1 action (% of Control), 10^-8 M” value is 100.0 % of Control. For the same compound, in test [2], the remaining activity at 1 µM stood at 12.5% and the remaining activity at 0.1 µM amounted to 24.2%.

Consider `O=C(c1ccc(F)cc1)C1CCN(CCn2c(=O)[nH]c3ccccc3c2=O)CC1` [Ketanserin tartrate, reference compound], for which the inhibition at 0.1 µM in test [3] was 20%.

Consider `Cn1ccc2c1C(=O)N(CCCN1CCC(c3ccccc3)CC1)CCC2=NO` [Compound No. 52, 4-Hydroxyimino-1-methyl-7-[3-(4-phenylpiperidin-1-yl)propyl]-4,5,6,7-tetrahydropyrrolo[2,3-c]azepin-8(1H)-one], for which, in test [1], the “Anti α1 action (% of Control), 10^-7 M” value is reported as 62.6 % of Control and the “Anti α1 action (% of Control), 10^-8 M” value is 97.2 % of Control. Also, in test [2], the remaining activity at 1 µM was 9.9% and the remaining activity at 0.1 µM stood at 39.1%.
